Laboratory results: publication PMC6149898, “GPCR Modulation of Thieno[2,3-b]pyridine Anti-Proliferative Agents” (Molecules : A Journal of Synthetic Chemistry and Natural …, 2017)

Tests used:
P2RY4 = P2RY4 (Homo sapiens, UniProt P51582); test: gpcrMAX PathHunter beta-arrestin
BR:T-47D = tested on: BR:T-47D; set-up: method as in earlier work; conditions: NCI-60 panel; ref [4],[5],[6],[7]; cited from earlier work
DRD5 = DRD5 (Homo sapiens, UniProt P21918); test: gpcrMAX PathHunter beta-arrestin
PPYR1 = PPYR1 (Homo sapiens, UniProt P50391); test: gpcrMAX PathHunter beta-arrestin
ADRA2C = ADRA2C (Homo sapiens, UniProt P18825); test: gpcrMAX PathHunter beta-arrestin
ADRA2C, sequence (P18825 whole entry): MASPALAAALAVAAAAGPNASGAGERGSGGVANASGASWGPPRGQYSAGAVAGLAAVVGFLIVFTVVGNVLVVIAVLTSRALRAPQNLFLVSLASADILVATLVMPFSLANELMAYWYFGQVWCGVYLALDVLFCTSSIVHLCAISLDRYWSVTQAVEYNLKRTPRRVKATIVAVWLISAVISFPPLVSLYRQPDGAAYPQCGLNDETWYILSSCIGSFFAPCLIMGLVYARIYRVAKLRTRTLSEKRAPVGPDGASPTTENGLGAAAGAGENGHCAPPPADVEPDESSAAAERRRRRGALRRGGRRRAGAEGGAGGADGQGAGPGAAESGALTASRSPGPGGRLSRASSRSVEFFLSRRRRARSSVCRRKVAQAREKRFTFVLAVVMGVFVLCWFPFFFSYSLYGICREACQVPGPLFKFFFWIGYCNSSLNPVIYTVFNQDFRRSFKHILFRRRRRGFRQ

MCHR1 = MCHR1 (Homo sapiens, UniProt Q99705); test: gpcrMAX PathHunter beta-arrestin
TACR3 = TACR3 (Homo sapiens, UniProt P29371); test: gpcrMAX PathHunter beta-arrestin
CCKBR = CCKBR (Homo sapiens, UniProt P32239); test: gpcrMAX PathHunter beta-arrestin
DRD4 = DRD4 (Homo sapiens, UniProt P21917); test: gpcrMAX PathHunter beta-arrestin
DRD4, sequence (P21917 whole entry): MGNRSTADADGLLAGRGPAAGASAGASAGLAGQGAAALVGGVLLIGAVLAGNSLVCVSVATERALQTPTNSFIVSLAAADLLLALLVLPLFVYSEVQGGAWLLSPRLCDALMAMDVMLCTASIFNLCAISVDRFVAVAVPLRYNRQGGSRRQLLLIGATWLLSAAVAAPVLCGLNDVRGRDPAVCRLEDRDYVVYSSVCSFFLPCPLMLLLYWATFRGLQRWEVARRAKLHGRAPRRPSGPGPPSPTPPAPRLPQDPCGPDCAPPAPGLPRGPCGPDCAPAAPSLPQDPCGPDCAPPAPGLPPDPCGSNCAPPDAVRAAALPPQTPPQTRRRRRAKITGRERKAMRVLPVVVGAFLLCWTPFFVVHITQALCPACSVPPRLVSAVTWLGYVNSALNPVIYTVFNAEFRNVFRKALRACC

CNR2 = CNR2 (Homo sapiens, UniProt P34972); test: gpcrMAX PathHunter beta-arrestin
F2R = F2R (Homo sapiens, UniProt P25116); test: gpcrMAX PathHunter beta-arrestin
SSTR2 = SSTR2 (Homo sapiens, UniProt P30874); test: gpcrMAX PathHunter beta-arrestin
CHRM1 = CHRM1 (Homo sapiens, UniProt P11229); test: gpcrMAX PathHunter beta-arrestin
CHRM1, sequence (P11229 whole entry): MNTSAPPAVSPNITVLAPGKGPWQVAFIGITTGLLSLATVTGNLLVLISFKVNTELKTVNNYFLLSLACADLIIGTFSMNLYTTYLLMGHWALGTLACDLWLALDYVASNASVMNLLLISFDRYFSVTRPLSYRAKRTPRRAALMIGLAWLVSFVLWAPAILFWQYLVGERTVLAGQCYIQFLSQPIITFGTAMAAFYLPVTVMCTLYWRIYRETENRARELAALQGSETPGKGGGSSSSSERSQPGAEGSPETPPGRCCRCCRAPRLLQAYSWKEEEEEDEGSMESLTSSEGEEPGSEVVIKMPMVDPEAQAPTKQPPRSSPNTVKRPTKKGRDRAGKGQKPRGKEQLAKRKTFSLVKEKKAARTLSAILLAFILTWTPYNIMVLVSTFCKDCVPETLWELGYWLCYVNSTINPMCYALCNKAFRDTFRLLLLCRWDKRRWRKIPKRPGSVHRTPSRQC

SCTR = SCTR (Homo sapiens, UniProt P47872); test: gpcrMAX PathHunter beta-arrestin
P2RY6 = P2RY6 (Homo sapiens, UniProt Q15077); test: gpcrMAX PathHunter beta-arrestin
CNS:U251 = tested on: CNS:U251; set-up: method as in earlier work; conditions: NCI-60 panel; ref [4],[5],[6],[7]; cited from earlier work
GPR92 = GPR92 (Homo sapiens, UniProt Q9H1C0); test: gpcrMAX PathHunter beta-arrestin
GPR92, sequence (Q9H1C0 whole entry): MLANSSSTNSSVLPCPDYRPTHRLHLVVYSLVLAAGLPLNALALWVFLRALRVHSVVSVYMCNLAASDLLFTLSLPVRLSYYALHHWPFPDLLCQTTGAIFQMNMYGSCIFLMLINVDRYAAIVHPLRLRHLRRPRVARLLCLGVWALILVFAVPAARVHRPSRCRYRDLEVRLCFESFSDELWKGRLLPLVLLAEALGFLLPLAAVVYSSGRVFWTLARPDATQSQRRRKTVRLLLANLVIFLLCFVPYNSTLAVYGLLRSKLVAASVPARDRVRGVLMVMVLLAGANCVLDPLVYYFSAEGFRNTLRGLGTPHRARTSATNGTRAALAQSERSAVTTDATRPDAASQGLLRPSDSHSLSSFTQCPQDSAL
BR:MDA-MB-231 = tested on: BR:MDA-MB-231; set-up: method as in earlier work; conditions: NCI-60 panel; ref [4],[5],[6],[7]; cited from earlier work
GALR2 = GALR2 (Homo sapiens, UniProt O43603); test: gpcrMAX PathHunter beta-arrestin
GIPR = GIPR (Homo sapiens, UniProt P48546); test: gpcrMAX PathHunter beta-arrestin
GIPR, sequence (P48546 22-466): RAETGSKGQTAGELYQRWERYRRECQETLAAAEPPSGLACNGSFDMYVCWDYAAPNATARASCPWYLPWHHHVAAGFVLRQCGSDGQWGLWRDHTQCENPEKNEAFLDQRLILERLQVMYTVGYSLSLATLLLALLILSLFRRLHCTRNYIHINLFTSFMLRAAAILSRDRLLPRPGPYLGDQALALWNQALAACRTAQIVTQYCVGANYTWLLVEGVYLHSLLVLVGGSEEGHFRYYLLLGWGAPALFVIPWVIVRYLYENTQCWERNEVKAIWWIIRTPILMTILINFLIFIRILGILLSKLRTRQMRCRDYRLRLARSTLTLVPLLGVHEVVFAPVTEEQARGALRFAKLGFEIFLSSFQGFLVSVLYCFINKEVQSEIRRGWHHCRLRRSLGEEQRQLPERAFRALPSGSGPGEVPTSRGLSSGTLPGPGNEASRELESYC
BR:MCF7 = tested on: BR:MCF7; set-up: method as in earlier work; conditions: NCI-60 panel; ref [4],[5],[6],[7]; cited from earlier work
CALCRL-RAMP1 = CALCRL-RAMP1 (Homo sapiens, UniProt O60894+Q16602); test: gpcrMAX PathHunter beta-arrestin
MRGPRX2 = MRGPRX2 (Homo sapiens, UniProt Q96LB1); test: gpcrMAX PathHunter beta-arrestin
MRGPRX2, sequence (Q96LB1 whole entry): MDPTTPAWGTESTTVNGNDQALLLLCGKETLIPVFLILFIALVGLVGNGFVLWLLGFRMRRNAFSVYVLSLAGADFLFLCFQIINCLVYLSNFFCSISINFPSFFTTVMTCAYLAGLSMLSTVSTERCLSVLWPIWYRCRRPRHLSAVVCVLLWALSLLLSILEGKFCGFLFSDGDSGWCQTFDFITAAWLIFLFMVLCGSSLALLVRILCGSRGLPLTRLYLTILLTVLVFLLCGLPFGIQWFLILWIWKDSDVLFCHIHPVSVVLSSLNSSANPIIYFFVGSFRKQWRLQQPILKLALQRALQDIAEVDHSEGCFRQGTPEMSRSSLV

EBI2 = EBI2 (Homo sapiens, UniProt P32249); test: gpcrMAX PathHunter beta-arrestin
CHRM4 = CHRM4 (Homo sapiens, UniProt P08173); test: gpcrMAX PathHunter beta-arrestin
HTR1B = biological target: T1, HTR1B (Homo sapiens, UniProt P28222); test: gpcrMAX PathHunter beta-arrestin; assay type: cell-based
T1 construct: ProLink (beta-galactosidase enzyme-donor fragment)
T1 sequence (P28222 whole entry, the tested form may be a part): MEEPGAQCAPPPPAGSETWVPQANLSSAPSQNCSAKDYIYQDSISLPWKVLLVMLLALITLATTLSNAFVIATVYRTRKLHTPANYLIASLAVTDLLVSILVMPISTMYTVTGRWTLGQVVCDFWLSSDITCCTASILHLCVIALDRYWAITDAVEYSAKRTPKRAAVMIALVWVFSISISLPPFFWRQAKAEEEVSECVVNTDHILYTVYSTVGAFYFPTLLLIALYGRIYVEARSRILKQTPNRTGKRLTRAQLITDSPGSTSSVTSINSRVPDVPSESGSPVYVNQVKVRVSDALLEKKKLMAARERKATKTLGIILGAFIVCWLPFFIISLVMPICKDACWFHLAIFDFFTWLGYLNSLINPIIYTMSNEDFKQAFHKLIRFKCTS
Description: (§1) complementation (EFC) technology. […]
(§2) challenge at the EC80 concentration. […]
(§3) minutes. Vehicle concentration was 1%. […]
(§4) room temperature for 90 or 180 minutes. […]
(§5) instrument for chemiluminescent signal detection.
(§6) 11 GPCR MAX dose response, Agonist and Antagonist
(§7) Targets (60 Data points each): i) CALCRL‐RAMP3‐Antagonist
(§8) 180 minutes. Vehicle concentration was 1%. […]
(§9) hours. Vehicle concentration was 1%. Extended incubation is typically required to observe an inverse agonist response in the PathHunter arrestin assay.
(§10) Positive Allosteric Modulation Format
(§11) 1. For allosteric determination, cells were pre-incubated with sample followed by agonist induction at the EC20 concentration. […]
(§12) temperature for 90 or 180 minutes.
(§13) Antagonist/Negative Allosteric Modulation Format
(§14) 1. Compound activity was analyzed using CBIS data analysis suite (ChemInnovation, CA).

NPSR1B = biological target: T2, NPSR1B (Homo sapiens, UniProt Q6W5P4); test: gpcrMAX PathHunter beta-arrestin; assay type: cell-based
T2 construct: ProLink (beta-galactosidase enzyme-donor fragment)
T2 sequence (Q6W5P4 1-377 isoform Q6W5P4-4): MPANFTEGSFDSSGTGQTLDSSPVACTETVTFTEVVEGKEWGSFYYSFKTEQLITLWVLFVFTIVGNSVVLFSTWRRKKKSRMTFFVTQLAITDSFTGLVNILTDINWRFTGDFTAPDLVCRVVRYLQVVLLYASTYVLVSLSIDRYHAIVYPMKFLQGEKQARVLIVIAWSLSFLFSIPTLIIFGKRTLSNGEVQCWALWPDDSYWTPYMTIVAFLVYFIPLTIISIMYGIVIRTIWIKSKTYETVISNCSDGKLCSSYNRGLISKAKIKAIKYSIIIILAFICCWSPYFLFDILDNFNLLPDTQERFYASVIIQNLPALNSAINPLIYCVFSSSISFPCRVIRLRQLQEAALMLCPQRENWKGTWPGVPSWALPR
Description: as §1, §2, §3, §4, §5, §6, §7, §8, §9, §10, §11, §12, §13, §14

GPR35 = biological target: T3, GPR35 (Homo sapiens, UniProt Q9HC97); test: gpcrMAX PathHunter beta-arrestin; assay type: cell-based
T3 construct: ProLink (beta-galactosidase enzyme-donor fragment)
T3 sequence (Q9HC97 whole entry, the tested form may be a part): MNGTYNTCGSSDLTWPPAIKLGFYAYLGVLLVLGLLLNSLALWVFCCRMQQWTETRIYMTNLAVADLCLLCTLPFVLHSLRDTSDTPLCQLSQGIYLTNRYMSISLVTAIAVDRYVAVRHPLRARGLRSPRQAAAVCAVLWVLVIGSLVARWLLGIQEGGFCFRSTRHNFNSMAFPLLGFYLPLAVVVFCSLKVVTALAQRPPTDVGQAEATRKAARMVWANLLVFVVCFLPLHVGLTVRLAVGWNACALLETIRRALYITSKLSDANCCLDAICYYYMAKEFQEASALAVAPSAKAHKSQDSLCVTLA
Description: as §1, §2, §3, §4, §5, §6, §7, §8, §9, §10, §11, §12, §13, §14

PRLHR = biological target: T4, PRLHR (Homo sapiens, UniProt P49683); test: gpcrMAX PathHunter beta-arrestin; assay type: cell-based
T4 construct: ProLink (beta-galactosidase enzyme-donor fragment)
T4 sequence (P49683 whole entry, the tested form may be a part): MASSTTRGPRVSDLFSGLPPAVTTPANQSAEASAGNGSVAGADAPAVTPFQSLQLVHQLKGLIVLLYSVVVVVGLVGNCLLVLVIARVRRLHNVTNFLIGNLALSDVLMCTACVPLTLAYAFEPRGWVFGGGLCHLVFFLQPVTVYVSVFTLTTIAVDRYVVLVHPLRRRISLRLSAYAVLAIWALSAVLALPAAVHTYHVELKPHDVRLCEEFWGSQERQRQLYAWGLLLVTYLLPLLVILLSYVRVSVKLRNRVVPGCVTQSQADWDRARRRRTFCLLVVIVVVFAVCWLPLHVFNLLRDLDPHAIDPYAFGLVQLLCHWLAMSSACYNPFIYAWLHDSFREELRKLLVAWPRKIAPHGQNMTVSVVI
Description: as §1, §2, §3, §4, §5, §6, §7, §8, §9, §10, §11, §12, §13, §14

CALCRL-RAMP3 = biological target: T5, CALCRL-RAMP3 (Homo sapiens, UniProt O60896+Q16602); test: gpcrMAX PathHunter beta-arrestin; assay type: cell-based
T5 construct: ProLink (beta-galactosidase enzyme-donor fragment)
T5 sequence (Q16602 23-461): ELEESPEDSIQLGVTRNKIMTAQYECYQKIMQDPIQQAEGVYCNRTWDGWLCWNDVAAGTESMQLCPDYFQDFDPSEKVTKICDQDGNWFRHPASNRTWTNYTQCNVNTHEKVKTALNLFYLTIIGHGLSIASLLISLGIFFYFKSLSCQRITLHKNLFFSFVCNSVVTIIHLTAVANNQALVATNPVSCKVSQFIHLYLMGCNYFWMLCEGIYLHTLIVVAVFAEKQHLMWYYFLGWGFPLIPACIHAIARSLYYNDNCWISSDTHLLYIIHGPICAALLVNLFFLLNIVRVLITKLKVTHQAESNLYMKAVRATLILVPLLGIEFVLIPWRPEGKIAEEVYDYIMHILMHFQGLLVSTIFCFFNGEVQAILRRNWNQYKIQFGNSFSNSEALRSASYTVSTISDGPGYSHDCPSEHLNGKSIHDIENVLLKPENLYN
T5 sequence (O60896 24-148 partner): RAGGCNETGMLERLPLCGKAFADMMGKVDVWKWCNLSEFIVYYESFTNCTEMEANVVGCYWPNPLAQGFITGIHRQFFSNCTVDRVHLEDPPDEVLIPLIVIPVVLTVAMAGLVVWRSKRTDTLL
Description: as §1, §2, §3, §4, §5, §6, §7, §8, §9, §10, §11, §12, §13, §14

CXCR4 = biological target: T6, CXCR4 (Homo sapiens, UniProt P61073); test: gpcrMAX PathHunter beta-arrestin; assay type: cell-based
T6 construct: ProLink (beta-galactosidase enzyme-donor fragment)
T6 sequence (P61073 whole entry, the tested form may be a part): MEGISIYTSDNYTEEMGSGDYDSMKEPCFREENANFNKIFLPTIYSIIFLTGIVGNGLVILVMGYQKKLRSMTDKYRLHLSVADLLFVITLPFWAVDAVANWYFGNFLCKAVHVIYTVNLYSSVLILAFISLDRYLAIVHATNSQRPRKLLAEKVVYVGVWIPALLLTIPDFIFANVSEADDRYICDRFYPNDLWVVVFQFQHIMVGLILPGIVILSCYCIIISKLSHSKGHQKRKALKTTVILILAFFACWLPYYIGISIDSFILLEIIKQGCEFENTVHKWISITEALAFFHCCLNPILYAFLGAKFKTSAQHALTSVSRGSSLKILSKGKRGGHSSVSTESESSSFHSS
Description: as §1, §2, §3, §4, §5, §6, §7, §8, §9, §10, §11, §12, §13, §14

RE:A498 = tested on: RE:A498; set-up: method as in earlier work; conditions: NCI-60 panel; ref [4],[5],[6],[7]; cited from earlier work
OXER1 = OXER1 (Homo sapiens, UniProt Q8TDS5); test: gpcrMAX PathHunter beta-arrestin
NPY1R = NPY1R (Homo sapiens, UniProt P25929); test: gpcrMAX PathHunter beta-arrestin
[1] = antagonist format, dose response

Cc1c(Cl)cccc1NC(=O)c1sc2nc3c(cc2c1N)C(=O)CCC3 [Compound 1]
inhibition at 10 µM (P2RY4): -16% | GI50 (BR:T-47D): 0.055 µM | inhibition at 10 µM (DRD5): -31% | inhibition at 10 µM (PPYR1): -18% | inhibition at 10 µM (ADRA2C): -14% | inhibition at 10 µM (MCHR1): -77% | inhibition at 10 µM (TACR3): 5% | inhibition at 10 µM (CCKBR): 12% | inhibition at 10 µM (DRD4): -7% | inhibition at 10 µM (CNR2): 16% | inhibition at 10 µM (F2R): 5% | inhibition at 10 µM (SSTR2): 9% | inhibition at 10 µM (CHRM1): 0% | inhibition at 10 µM (SCTR): 13% | inhibition at 10 µM (P2RY6): -17% | GI50 (CNS:U251): 0.0962 µM | inhibition at 10 µM (GPR92): -28% | GI50 (BR:MDA-MB-231): 0.141 µM | inhibition at 10 µM (GALR2): -5% | inhibition at 10 µM (GIPR): 2% | GI50 (BR:MCF7): 0.0464 µM | inhibition at 10 µM (CALCRL-RAMP1): 6% | inhibition at 10 µM (MRGPRX2): -1% | inhibition at 10 µM (EBI2): 4% | inhibition at 10 µM (CHRM4): -10% | IC50 (HTR1B; [1]): > 50 µM | inhibition at 10 µM (HTR1B; antagonist mode, 10 µM): 42% | IC50 (NPSR1B; [1]): 1 µM | inhibition at 10 µM (NPSR1B; antagonist mode, 10 µM): 59% | EC50 (GPR35; agonist format, dose response): 7.5 µM | inhibition at 10 µM (GPR35; antagonist mode, 10 µM): -12% | IC50 (PRLHR; [1]): 9.3 µM | inhibition at 10 µM (PRLHR; antagonist mode, 10 µM): 44% | IC50 (CALCRL-RAMP3; [1]): 11.9 µM | inhibition at 10 µM (CALCRL-RAMP3; antagonist mode, 10 µM): 63% | IC50 (CXCR4; [1]): 6.9 µM | inhibition at 10 µM (CXCR4; antagonist mode, 10 µM): 39% | GI50 (RE:A498): 0.0232 µM | inhibition at 10 µM (OXER1): -1% | inhibition at 10 µM (NPY1R): 11%
